# Key:
# [1] = system: mixed thrips population (Frankliniella occidentalis); experiment: Frankliniella occidentalis test, Example H; format: in vivo; settings: 100 ppm, cotton plants, spraying
# Protocol: (§1) To prepare a suitable active compound preparation 1 part by weight of the active compound is mixed with the given amount of solvent and the given amount of emulsifier and the concentrate is diluted to the desired concentration with water containing emulsifier.
# Cotton plants (Gossypium hirsutum) are treated by spraying with the active compound preparation at the desired concentration and infected with a mixed thrips population (Frankliniella occidentalis).
# After the desired time the death rate in % is determined. Here 100% means that all thrips were killed; 0% means that no thrips were killed.
# [2] = system: green peach aphid (Myzus persicae); experiment: Myzus persicae test (cabbage leaves, immersion), Example A; format: in vivo; settings: for Death rate in % after 6d: 1000 ppm, cabbage leaves (Brassica oleracea)
# Protocol: (§2) To prepare a suitable active compound preparation 1 part by weight of the active compound is mixed with the given amount of solvent and the given amount of emulsifier and the concentrate is diluted to the desired concentration with water.
# Cabbage leaves (Brassica oleracea) that are highly infested with the green peach aphid (Myzus persicae) are treated by immersion in the active compound preparation at the desired concentration.
# (§3) After the desired time the death rate in % is determined. Here 100% means that all aphids were killed; 0% means that no aphids were killed.
# [3] = system: white fly (Bemisia tabaci, resistant strain); experiment: Bemisia tabaci test, resistant strain, Example E; format: in vivo; settings: cotton leaf sections, immersion
# Protocol: as §1
# Leaf sections of cotton plants (Gossypium hirsutum) are treated by immersion in the active compound preparation at the desired concentration and after drying of the coating are infected with adults of the white fly (Bemisia tabaci, resistant strain).
# After the desired time the death rate in % is determined. Here 100% means that all animals were killed; 0% means that no animals were killed.
# [4] = system: green peach aphid (Myzus persicae); experiment: Myzus persicae test, soil application, Example C; format: in vivo; settings: pepper plant
# Protocol: as §2
# The active compound preparation is mixed with soil. The concentration given relates to the amount of active compound per unit volume soil (mg/l=ppm). The treated soil is filled into pots and planted with one pepper plant (Capsicum annuum). After one week infection is carried out with the green peach aphid (Myzus persicae).
# (§4) After the desired time the activity in % is determined. Here 100% means that all aphids were killed; 0% means that no aphids were killed.
# [5] = system: cotton aphid (Aphis gossypii); experiment: Aphis gossypii test, soil application, Example D; format: in vivo; settings: cotton plant
# Protocol: as §2
# The active compound preparation is mixed with soil. The concentration given relates to the amount of active compound per unit volume soil (mg/l=ppm). The treated soil is filled into pots and planted with one cotton plant (Gossypium hirsutum). After a week infection is carried out with the cotton aphid (Aphis gossypii).
# as §3
# physchem = settings: pH 2
# [6] = system: green peach aphid (Myzus persicae); experiment: Myzus test, spray treatment, Example F; format: in vivo; settings: 500 g a.i./ha, China cabbage leaf sections
# Protocol: as §1
# China cabbage leaf sections (brassica pekinensis) that are infected with all stages of the green peach aphid (Myzus persicae) are sprayed with an active compound preparation at the desired concentration.
# as §4
# [7] = system: fall army worm (Spodoptera frugiperda); experiment: Spodoptera frugiperda test, Example G; format: in vivo; settings: 500 g a.i./ha, cabbage leaves, immersion, caterpillars
# Protocol: as §1
# Cabbage leaves (Brassica oleracea) are treated by immersion in the active compound preparation at the desired concentration and infected with caterpillars of the fall army worm (Spodoptera frugiperda) while the leaves are still wet.
# After the desired time the death rate in % is determined. Here 100% means that all caterpillars were killed; 0% means that no caterpillars were killed.
# [8] = system: green peach aphid (Myzus persicae); experiment: Myzus test, spray treatment, Example B; format: in vivo; settings: Chinese cabbage leaves
# Protocol: To prepare a suitable active compound preparation 1 part by weight of the active compound is mixed with the given amount of solvent and the given amount emulsifier and the concentrate is diluted to the desired concentration with water.
# Chinese cabbage leaves (Brassica pekinensis) infested with all stages of the green peach aphid (Myzus persicae) were sprayed with an active compound preparation at the desired concentration.
# as §3
compound,measurement,setting,value
CON/C(=N/[N+](=O)[O-])NCc1cnc(Cl)s1 [drawing 35],Death rate in % after 14d,[1],90%
CON/C(=N/[N+](=O)[O-])NCc1cnc(Cl)s1 [Example I-5],Death rate in % after 6d,[2],98%
same,activity in Myzus persicae test,[2]; cabbage leaves,good activity
same,Death rate in % after 3d,"[3]; 1000 ppm, after 3 d, adults",93%
same,"activity in Bemisia tabaci test, resistant strain",[3],good activity
same,Death rate in % after 7d,[4]; 0.25 ppm (mg/l soil),85%
same,"activity in Myzus persicae test, soil application",[4],good activity
same,Death rate in % after 7d,[5]; 0.25 ppm (mg/l soil),80%
same,"activity in Aphis gossypii test, soil application",[5],good activity
same,logP,physchem,1.13
CON/C(=N\[N+](=O)[O-])N(C)Cc1ccc(Cl)nc1,Activity in % after 5d,[6],100%
CON/C(=N\C#N)NCc1cnc(Cl)s1,Death rate in % after 7d,[7],100%
CCON/C(=N/[N+](=O)[O-])NCc1ccc(Cl)nc1 [Example I-2],Death rate in % after 4d,"[8]; 500 ppm, after 4 d",100%
same,"activity in Myzus test, spray treatment",[8],good activity
CON/C(=N\C#N)NCc1ccc(Cl)nc1,Activity in % after 5d,[6],100%
"CON/C(=N\[N+](=O)[O-])NCc1ccc(Cl)nc1 [Example I-1, N-methoxy-N′-(2-chloropyrid-5-ylmethyl)nitroguanidine]",Death rate in % after 6d,[2],98%
same,Death rate in % after 7d,[4]; 8 ppm (mg/l soil),100%
same,Death rate in % after 7d,[5]; 8 ppm (mg/l soil),100%

# From US7763640B2, “Substituted oxyguanidines” (Bayer CorpScience AG, priority 2004, dated 2010)
